According to ChEMBL document CHEMBL1155852, “Novel inhibitors of anthrax edema factor” (Bioorg Med Chem, 2008):
Calls of active or inactive are those of the source. The calls are words filed in the database; no cut-off is given here.

Columns and labels:
[1] = target: T1, Calmodulin-sensitive adenylate cyclase (Bacillus anthracis) (UniProt P40136); experiment: Inhibition of Bacillus anthracis edema factor-induced cAMP secretion in mouse RAW264.7 cells at 100 uM after 4 hrs by ELISA; assay type: cell-based
T1 sequence (whole entry): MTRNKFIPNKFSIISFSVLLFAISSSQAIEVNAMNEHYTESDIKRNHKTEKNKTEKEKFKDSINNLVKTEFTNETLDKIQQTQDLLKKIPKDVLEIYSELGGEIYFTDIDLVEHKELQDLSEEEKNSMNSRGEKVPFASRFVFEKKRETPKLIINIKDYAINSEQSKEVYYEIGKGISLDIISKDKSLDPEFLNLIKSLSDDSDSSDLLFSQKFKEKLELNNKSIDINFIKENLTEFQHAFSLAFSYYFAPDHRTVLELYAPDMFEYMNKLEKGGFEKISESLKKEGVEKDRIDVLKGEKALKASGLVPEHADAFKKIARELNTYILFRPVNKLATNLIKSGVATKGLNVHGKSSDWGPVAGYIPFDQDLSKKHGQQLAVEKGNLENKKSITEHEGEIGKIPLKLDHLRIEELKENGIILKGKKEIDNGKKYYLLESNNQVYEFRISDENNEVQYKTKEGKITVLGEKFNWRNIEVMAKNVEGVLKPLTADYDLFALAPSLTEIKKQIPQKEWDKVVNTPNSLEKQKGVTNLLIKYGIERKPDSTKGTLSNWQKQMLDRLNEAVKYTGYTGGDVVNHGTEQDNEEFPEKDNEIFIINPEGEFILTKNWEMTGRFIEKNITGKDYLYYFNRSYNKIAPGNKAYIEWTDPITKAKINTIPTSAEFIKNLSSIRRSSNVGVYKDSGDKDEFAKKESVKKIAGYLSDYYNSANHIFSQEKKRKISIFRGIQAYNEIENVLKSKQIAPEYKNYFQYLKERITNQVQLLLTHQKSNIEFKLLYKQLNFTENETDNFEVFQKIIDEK

[2] = target: T2, Calmodulin-sensitive adenylate cyclase (Bacillus anthracis, UniProt P40136); experiment: Inhibition of Bacillus anthracis edema factor-induced cAMP secretion in mouse RAW264.7 cells after 4 hrs by ELISA; assay type: cell-based
T2 sequence (P40136 whole entry): T1 sequence (whole entry)

Question: With `CCCCC[C@H](O)/C=C/[C@H]1[C@H](n2ccnc2)CC(=O)[C@@H]1C/C=C\CCCC(=O)O` as the compound, how does the Activity [1] read?
Answer: Active

Question: With `COc1cccc([C@H]2Nc3ccc(C(=O)O)cc3[C@@H]3C=CC[C@H]23)c1` as the compound, how does the IC50 [2] read?
Answer: 1730 nM

Question: `O=C(O)c1cccc(NC(=O)c2cccc3c2C(=O)c2ccccc2-3)c1` was tested. Which IC50 [2] did it give?
Answer: 1830 nM

Question: How did the IC50 [2] turn out when `O=C(O)c1ccc(/N=C/c2c3ccccc3cc3ccccc23)cc1O` was run?
Answer: 8500 nM
